Measurements taken from US8828993B2, “Psychotropic agents having glutamate NMDA activity” (Ramot At Tel-Aviv University Ltd., priority 2006, dated 2014).
Counter-ions that a name gives are not always drawn.

How the values were obtained:
rats = test: Morris Water Maze, spatial cognition; type: in vivo
Procedure: The Morris Water Maze is a well known test aimed to assess spatial cognitive tasks (Anger, et al., Animal test systems to study behavioral dysfunctions of neurodegenerative disorders, Neurotoxicology, 12, 403-13 (1991)). The maze consists of a circular pool measuring 1.80 m in diameter 60 cm in height. The pool was filled with water (21±1° C.) to a depth of 30 cm. A circular hidden escape platform (10 cm in diameter) was placed just below the water surface. The test room contained several permanent extra maze cues such as the rat housing rack, laboratory table, posters on the walls, etc.
The Morris Water Maze is a well known test aimed to assess spatial cognitive tasks. The maze consists of a circular pool measuring 1.80 m in diameter 60 cm in height. The pool was filled with water (21±1° C.) to a depth of 30 cm. A circular hidden escape platform (10 cm in diameter) was placed just below the water surface. The test room contained several permanent extra maze cues such as the rat housing rack, laboratory table, posters on the walls, etc.
In the experiment rats were given Compound 1 orally on day 1 and the first test begun 90 minute later, six trials per day, for 3 consecutive days, to find the hidden platform (acquisition phase). The escape latency, i.e., the time required by the rat to find and climb onto the platform, was recorded for up to 120 sec. Each rat was allowed to remain on the platform for 30 sec, after which it was removed to its home cage.
A video camera was placed above the center of the pool for tracking the rat, and a video tracking system (Noldus) with online digital output directly fed data into a computer. Data were analyzed using EthoVision automated tracking system software (Noldus).

human glioma U83 cell = conditions: 24 h
Procedure: Determination of cell viability was performed in cells (10,000/well) using neutral red method. Absorption of neutral red by lysosomes caused coloring of living cells. Quantitative analysis was performed by colorimetric assay (ELISA reader at 550 nm).

COC(=O)C(N)CN1CCN(C2=Nc3ccccc3Nc3sc(C)cc32)CC1 (stereo not shown) [Compound 1, 2-amino-3-[4-(2-methyl-10H-thieno[2,3-b][1,5]benzodiazepin-4-yl)-piperazin-1-yl]-propionic acid, methyl ester hydrochloride salt]
latency to platform (task execution) (rats; 20 mg/kg po, second day): improvement
latency to platform (learning of the spatial task) (rats; rats, 20 mg/kg po on day 1, first day): faster learning
latency to platform (rats; rats, 10 and 20 mg/kg po, third day, between all groups): no difference
concentration toxic to human glioma cells (not toxic up to) (human glioma U83 cell): > 100 µM
